Data set [1] can be described thus: Compression stability (KBr pellet die, XRPD analysis). It is filed as physicochemical. As to conditions: compressed for 4.5 days at 740 MPa. Here is the method: XRPD diffractograms were obtained with an X'Pert PRO diffractometer (PANalytical, Almelo, The Netherlands) equipped with a theta/theta coupled goniometer in transmission geometry, programmable XYZ stage with well plate holder, Cu K-alpha radiation source (wavelength 0.15418 nm) with a focusing mirror, a 0.5° divergence slit, a 0.02° soller slit collimator and a 0.5° anti-scattering slit on the incident beam side, a 2 mm anti-scattering slit, a 0.02° soller slit collimator, a Ni-filter and a solid state PIXcel detector on the diffracted beam side. The diffractogram was recorded at room temperature (25°C) at a tube voltage of 40 kV, tube current of 40 mA, applying a step size of 0.013° 2-Theta with 40 sec per step in the angular range of 2° to 40° 2-Theta. A typical precision of the 2-Theta values is in the range of ± 0.2° 2-Theta. Thus, a diffraction peak that appears for example at 9.4° 2-Theta can appear between 9.2 and 9.6° 2-theta on most X-ray diffractometers under standard conditions. 50 mg of pure amorphous idelalisib obtained as disclosed in Example 4b) were added to a KBr pellet die and compressed for 4.5 days at 740 MPa.

A short description of data set [2]: Thermal and humidity stability (XRPD analysis). It is filed as physicochemical. On the procedure: XRPD diffractograms were obtained with an X'Pert PRO diffractometer (PANalytical, Almelo, The Netherlands) equipped with a theta/theta coupled goniometer in transmission geometry, programmable XYZ stage with well plate holder, Cu K-alpha radiation source (wavelength 0.15418 nm) with a focusing mirror, a 0.5° divergence slit, a 0.02° soller slit collimator and a 0.5° anti-scattering slit on the incident beam side, a 2 mm anti-scattering slit, a 0.02° soller slit collimator, a Ni-filter and a solid state PIXcel detector on the diffracted beam side. The diffractogram was recorded at room temperature (25°C) at a tube voltage of 40 kV, tube current of 40 mA, applying a step size of 0.013° 2-Theta with 40 sec per step in the angular range of 2° to 40° 2-Theta. A typical precision of the 2-Theta values is in the range of ± 0.2° 2-Theta. Thus, a diffraction peak that appears for example at 9.4° 2-Theta can appear between 9.2 and 9.6° 2-theta on most X-ray diffractometers under standard conditions. 50 mg of pure amorphous idelalisib obtained as disclosed in Example 4b) were exposed to 98% relative humidity at 25°C for 5 days. […] 50 mg of pure amorphous idelalisib obtained as disclosed in Example 4b) were exposed to 75% relative humidity at 40°C for 5 days. […] 50 mg of pure amorphous idelalisib obtained as disclosed in Example 4b) were thermally stressed at 120°C and 50% relative humidity for 5 days in a sealed vial.

Data set [3] in a line: Solubility in water at 25°C. It is filed as physicochemical.
For data set [4] the following is noted: pressure conditions typical for tablet preparation; cited from earlier work.
A short description of the next data set: Solubility at pH 6.8. It is filed as physicochemical. As to conditions: pH 6.8, aqueous buffer. Here is the method: The solubility of Forms I and II of idelalisib is very low. At pH 6.8 a solubility of about 70 mg/L was measured.

Converted amounts (≈) assume the structure as drawn.

Turning to `CC[C@H](Nc1ncnc2[nH]cnc12)c1nc2cccc(F)c2c(=O)n1-c1ccccc1` [pure amorphous idelalisib, (S)-2-(1-(9H-purin-6-ylamino)propyl)-5-fluoro-3-phenylquinazolin-4(3H)-one], the “change in the amorphous phase by XRPD after compression” value in data set [1] is “no change in the amorphous phase”. The “change of the amorphous form by XRPD after storage” value in data set [2] (75% relative humidity at 40°C for 5 days) is “no change of the amorphous form”; in data set [2] (98% relative humidity at 25°C for 5 days), “no change of the amorphous form”; in data set [2] (120°C and 50% relative humidity for 5 days in a sealed vial), “no change of the amorphous form”. Also, the solubility in data set [3] was around 415 µg/mL (≈ 999 µM).

`CC[C@H](Nc1ncnc2[nH]cnc12)c1nc2cccc(F)c2c(=O)n1-c1ccccc1` [Form I, (S)-2-(1-(9H-purin-6-ylamino)propyl)-5-fluoro-3-phenylquinazolin-4(3H)-one]: the “phase conversion under pressure” value in data set [4] is reported as “easily converts at least partially to Form II”. In addition, the solubility in the data set “Solubility at pH 6.8” was around 70 µg/mL (≈ 168 µM).

(Values after patent EP3048104A1, “AMORPHOUS AND CRYSTALLINE FORMS OF IDELALISIB AND PROCESS FOR FORMING THE SAME” (Sandoz AG, priority 2015, dated 2016).)
